In patent US7745644B2, “Antibiotic compounds” (Merck Sharp & Dohme Corp., priority 2003, dated 2010) one finds antibacterial activity and MIC data, which are given here for 1 compound.

Converted amounts (≈) assume the structure as drawn.

For one assay, the system named is S. aureus. The experiment in a line: Microbroth dilution MIC assay. The class given is cell-based, Staphylococcus aureus. On the procedure:
(§1) The strains used are isolates from either the Merck Culture Collection, the Merck Clinical Culture Collection or from Clinical Trials. The strain of Haemophilus influenzae is a mouse pathogen used for in vivo testing at Merck. The Escherichia coli strain is a cell wall permeable strain. The Candida albicans strain is used as a control. These culture are maintained as frozen stocks at −80° C. in a.) Microbank beads; b.) 2× Skim Milk; or c.) in 2× Trypticase Soy Broth+15% glycerol/50% horse serum (Haemophilus and Streptococcus pneumoniae).
(§2) Selected isolates are subcultured onto either Chocolate Agar Plates (Haemophilus influenzae), onto Trypticase Soy+5% Sheep Blood Agar Plates (Streptococcus pneumoniae, Staphylococcus aureus, Escherichia coli, Enterococcus, Bacillus) or onto Sabouraud Dextrose Agar (Candida) and incubated at 35° C. Haemophilus and Streptococcus pneumoniae are incubated in 5% CO2; all other isolates are incubated in ambient air. Isolates are subcultured 2× before assay.
(§3) Colonies are selected from plates and used to prepare an inoculum equivalent to a 0.5 McFarland standard in Trypticase Soy Broth. An inoculum with a density equivalent to a 1.0 McFarland standard is prepared for Streptococcus pneumoniae. The inoculum density for all cultures is −10^8 CFU/mL in TSB. This TSB inoculum is diluted 1:10 in sterile saline (4 mL inoculum+36 mL saline; equivalent to −10^7 CFU/mL) and kept on ice until used to inoculate microtiter plates.
All wells of 96-well microtiter plates (Dynex) are filled with 100 TL media. Haemophilus test media plates are prepared to test Haemophilus influenzae; Cation-Adjusted Mueller Hinton+5% Lysed Horse Blood plates are prepared to test Streptococcus pneumoniae; Cation-Adjusted Mueller Hinton Broth plates are prepared to test Enterococcus, Staphylococcus aureus, Escherichia coli and Bacillus subtilis. RPMI 1640 is used to test Candida The MICs against S. aureus Smith are determined in Cation-adjusted Mueller Hinton and in Cation-Adjusted Mueller Hinton+50% Human Serum to determine if the compound is inactivated by some component in serum (indicated by an increase in the MIC). Filled plates are wrapped in plastic bags (to minimize evaporation), stored frozen and thawed before use.
The compounds are prepared on a weight basis. Compounds are prepared to 2 mg/mL in 100% DMSO, then diluted to 1 mg/mL in a 1:1 dilution of DMSO/2×CAMHB (final concentration=50% DMSO/50% CAMHB). […]
(§4) All wells of microtiter plates are inoculated with (saline-diluted) culture using the MIC 2000 System, an automated plate inoculating device which delivers an inoculum of 1.5 TL per well. […] Results are recorded after 22-24-hours' incubation. Plates were read to no growth.
(In general: Dilution methods test growth across graded concentrations, often in twofold steps.)

Another assay deals with E. faecalis. Kind of assay: Microbroth dilution MIC assay. The class given is cell-based, Enterococcus faecalis. To be noted: various strains of E. faecalis. On the procedure: as §1, §2
(§5) Colonies are selected from plates and used to prepare an inoculum equivalent to a 0.5 McFarland standard in Trypticase Soy Broth. […]
as §4

The test system of the next assay is E. faecium. The experiment in a line: Microbroth dilution MIC assay. It counts as cell-based, Enterococcus faecium. On the procedure: as §1, §2, §3
All wells of 96-well microtiter plates (Dynex) are filled with 100 TL media. […]
as §4

The subject of a further assay is B. subtilis. Kind of assay: Microbroth dilution MIC assay. It counts as cell-based, Bacillus subtilis. As to conditions: various strains of B. subtilis. The method, then: as §1, §2, §5, §4
The subject of the next assay is S. pneumoniae. Kind of assay: Microbroth dilution MIC assay. To be noted: various strains of S. pneumoniae. It counts as cell-based, Streptococcus pneumoniae. On the procedure: as §1, §2, §5, §4
The next assay relates to E. coli. Kind of assay: Microbroth dilution MIC assay. It counts as cell-based, Escherichia coli. To be noted: various strains of E. coli; cell wall permeable strain. On the procedure: as §1, §2, §5, §4
For another assay, the system named is S. epidermidis. Kind of assay: Microbroth dilution MIC assay. The class given is cell-based, Staphylococcus epidermidis. To be noted: macrolide-resistant S. epidermidis.
The subject of assay [1] is vancomycin-resistant Enterococcus sp. (VRE). The experiment in a line: Microbroth dilution MIC assay. It counts as cell-based. The method, then: as §1, §2, §5, §4
Assay [2] is described as follows: Microbroth dilution MIC assay, all test strains pooled. As to conditions: range over all test strains, including resistant ones; NCCLS guidelines; read-out: minimum inhibitory concentration (MIC). It counts as cell-based. The method, then:
as §1, §2, §5, §4

As to `C[C@@]12C[C@]34C=CC(=O)[C@](C)(CCC(=O)Nc5c(O)ccc(C(=O)O)c5O)C3[C@@H](CC1C4)O2` (some centres unmarked) [Compound I], the antibacterial activity entry in the assay with S. aureus (linezolid-resistant S. aureus), in the assay on S. aureus (macrolide-resistant S. aureus), with S. aureus (methicillin-resistant S. aureus (MRSA)), with S. aureus (various strains of S. aureus), in the assay with E. faecalis and with E. faecium (linezolid-resistant E. faecium) was “demonstrates antibacterial activity” throughout. In addition, the antibacterial activity result in the assay with E. faecium (multidrug-resistant E. faecium), in the assay on E. faecium (various strains of E. faecium), in the assay with B. subtilis, with S. pneumoniae, in the assay with E. coli and with S. epidermidis was “demonstrates antibacterial activity” throughout. For the same compound, in assay [1], the antibacterial activity entry is “demonstrates antibacterial activity”. The MIC in assay [2] was in the range of 0.1 to 32 µg/mL (≈ 0.227 to 72.5 µM).
